Test results as given in patent US10308637B2 (LifeSci Pharmaceuticals, Inc., priority 2015, dated 2019).

Experiment: Contact Assay (percentage inhibition from fluorescence intensity)
Type: biochemical
Protocol: The percentage inhibition was calculated using the following equation:
[formula] where, Mean(BG) is the average value of the fluorescence intensity of the background wells and Mean(PC) is the average value of the fluorescence intensity of the positive control wells.
Table 4 provides the EC50 values of various compounds disclosed herein.

SMILES	EC50 [nM]
CC(C)(O)c1cc(Cc2cc(C(=O)NCc3n[nH]c4ccc(Cl)cc34)ccn2)cc2cc(Cl)cnc12 [Example 225, N-((5-chloro-1H-indazol-3-yl)methyl)-2-((3-chloro-8-(2-hydroxypropan-2-yl)quinolin-6-yl)methyl)isonicotinamide]	100 to 1000
Cc1cc(N)nc(C)c1CNC(=O)c1ccnc(Cc2ccc3ncc(Cl)cc3c2)c1 [Example 35, N-((6-amino-2,4-dimethylpyridin-3-yl)methyl)-2-((3-chloroquinolin-6-yl)methyl)isonicotinamide]	≤ 100
CC(C)(O)c1cc(Cc2cc(C(=O)NCc3cnc4[nH]cc(Cl)c4c3)ccn2)cc2cc(Cl)cnc12 [Example 223, N-((3-chloro-1H-pyrrolo[2,3-b]pyridin-5-yl)methyl)-2-((3-chloro-8-(2-hydroxypropan-2-yl)quinolin-6-yl)methyl)isonicotinamide]	≤ 100
NC(=O)c1cc(Cc2cc(C(=O)NCc3ccc4[nH]cc(Cl)c4c3F)ccn2)cc2cc(Cl)cnc12 [Example 65, 3-chloro-6-((4-(((3-chloro-4-fluoro-1H-indol-5-yl)methyl)carbamoyl)pyridin-2-yl)methyl)quinoline-8-carboxamide]	≤ 100
Cc1cc(N)nc(C)c1CNC(=O)c1ccnc(Cc2cc(S(C)(=O)=O)c3ncc(Cl)cc3c2)c1 [Example 67, N-((6-amino-2,4-dimethylpyridin-3-yl)methyl)-2-((3-chloro-8-(methylsulfonyl)quinolin-6-yl)methyl)isonicotinamide]	≤ 100
Cc1cnc2c(C#N)cc(Cc3cc(C(=O)NCc4cnc5[nH]cc(Cl)c5c4)ccn3)cc2c1 [Example 73, N-((3-chloro-1H-pyrrolo[2,3-b]pyridin-5-yl)methyl)-2-((8-cyano-3-methylquinolin-6-yl)methyl)isonicotinamide]	100 to 1000
Cc1cc(N)nc(C)c1CNC(=O)c1cc(CN)nc(Cc2ccc3ncc(Cl)cc3c2)c1 [Example 211, N-((6-amino-2,4-dimethylpyridin-3-yl)methyl)-2-(aminomethyl)-6-((3-chloroquinolin-6-yl)methyl)isonicotinamide]	≤ 100
Cc1cnc2c(C(=O)O)cc(Cc3cc(C(=O)NCc4c(C)cc(N)nc4C)ccn3)cc2c1 [Example 84, 6-((4-(((6-amino-2,4-dimethylpyridin-3-yl)methyl)carbamoyl)pyridin-2-yl)methyl)-3-methylquinoline-8-carboxylic acid]	≤ 100
Cc1cc(N)nc(C)c1CNC(=O)c1ccnc(Cc2cc3cc(Cl)cnc3cn2)c1 [Example 148, N-((6-amino-2,4-dimethylpyridin-3-yl)methyl)-2-((3-chloro-1,7-naphthyridin-6-yl)methyl)isonicotinamide]	≤ 100
Cc1cnc2c(S(C)(=O)=O)cc(Cc3cc(C(=O)NCc4cc5cc[nH]c5cc4F)ccn3)cc2c1 [Example 18, N-((6-fluoro-1H-indol-5-yl)methyl)-2-((3-methyl-8-(methylsulfonyl)quinolin-6-yl)methyl)isonicotinamide]	100 to 1000
Cc1cc(N)nc(C)c1CNC(=O)c1ccnc(Cc2cc(S(N)(=O)=O)c3ncc(Cl)cc3c2)c1 [Example 235, N-((6-amino-2,4-dimethylpyridin-3-yl)methyl)-2-((3-chloro-8-sulfamoylquinolin-6-yl)methyl)isonicotinamide]	≤ 100
Cc1cc2c(N)nccc2cc1CNC(=O)c1ccnc(Cc2ccc3ncc(C(F)(F)F)cc3c2)c1 [Example 183, N-((1-amino-7-methylisoquinolin-6-yl)methyl)-2-((3-(trifluoromethyl)quinolin-6-yl)methyl)isonicotinamide]	≤ 100
Cc1cc(N)nc(C)c1CNC(=O)c1ccnc(Cc2cc(CN)c3ncc(Cl)cc3c2)c1 [Example 241, N-((6-amino-2,4-dimethylpyridin-3-yl)methyl)-2-((8-(aminomethyl)-3-chloroquinolin-6-yl)methyl)isonicotinamide]	≤ 100
Cc1cc(N)nc(C)c1CNC(=O)c1ccnc(C(O)c2ccc3ncc(Cl)cc3c2)c1 (centres unmarked) [Example 275, N-((6-amino-2,4-dimethylpyridin-3-yl)methyl)-2-((3-chloroquinolin-6-yl)(hydroxy)methyl)isonicotinamide]	100 to 1000
Cc1cc(N)nc(C)c1CNC(=O)c1ccnc(Cc2cc(N)c3ncc(Cl)cc3c2)c1 [Example 217, N-((6-amino-2,4-dimethylpyridin-3-yl)methyl)-2-((8-amino-3-chloroquinolin-6-yl)methyl)isonicotinamide]	≤ 100
Cc1cnc2c(S(N)(=O)=O)cc(Cc3cc(C(=O)NCc4cc5c(Cl)c[nH]c5cc4F)ccn3)cc2c1 [Example 287, N-((3-chloro-6-fluoro-1H-indol-5-yl)methyl)-2-((3-methyl-8-sulfamoylquinolin-6-yl)methyl)isonicotinamide]	≤ 100
Cc1cc(N)nc(C)c1CNC(=O)c1ccnc(C(N)c2ccc3ncc(Cl)cc3c2)c1 (centres unmarked) [Example 276, 2-[Amino-(3-chloro-quinolin-6-yl)-methyl]-N-(6-amino-2,4-dimethyl-pyridin-3-ylmethyl)-isonicotinamide]	100 to 1000
Cc1cnc2c(C#N)cc(Cc3cc(C(=O)NCc4c(C)cc(N)nc4C)ccn3)cc2c1 [Example 70, N-((6-amino-2,4-dimethylpyridin-3-yl)methyl)-2-((8-cyano-3-methylquinolin-6-yl)methyl)isonicotinamide]	≤ 100
Cc1cc(N)nc(C)c1CNC(=O)c1ccnc(Cc2cc(Cl)c3ncc(Cl)cc3c2)c1 [Example 100, N-((6-amino-2,4-dimethylpyridin-3-yl)methyl)-2-((3,8-dichloroquinolin-6-yl)methyl)isonicotinamide]	≤ 100
Cc1cc(N)nc(C)c1CNC(=O)c1cc(CC#N)nc(Cc2ccc3ncc(Cl)cc3c2)c1 [Example 213, N-((6-amino-2,4-dimethylpyridin-3-yl)methyl)-2-((3-chloroquinolin-6-yl)methyl)-6-(cyanomethyl)isonicotinamide]	≤ 100
Cc1nc(N)ccc1CNC(=O)c1ccnc(Cc2ccc3ncc(Cl)cc3c2)c1 [Example 34, N-((6-amino-2-methylpyridin-3-yl)methyl)-2-((3-chloroquinolin-6-yl)methyl)isonicotinamide]	≤ 100
Cc1cc(N)nc(C)c1CNC(=O)c1ccnc(Cc2ccc3c(cc(Cl)c[n+]3[O-])c2)c1 [Example 99, 6-((4-(((6-amino-2,4-dimethylpyridin-3-yl)methyl)carbamoyl)pyridin-2-yl)methyl)-3-chloroquinoline 1-oxide]	≤ 100

Continued, values first:

EC50 [nM]	SMILES
≤ 100	COc1cnc2ccc(Cc3cc(C(=O)NCc4c(C)cc(N)nc4C)ccn3)cc2c1 [Example 264, N-((6-amino-2,4-dimethylpyridin-3-yl)methyl)-2-((3-methoxyquinolin-6-yl)methyl)isonicotinamide]
≤ 100	Cc1c(CNC(=O)c2ccnc(Cc3ccc4ncc(C(F)(F)F)cc4c3)c2)ccc2c(N)nccc12 [Example 184, N-((1-amino-5-methylisoquinolin-6-yl)methyl)-2-((3-(trifluoromethyl)quinolin-6-yl)methyl)isonicotinamide]
100 to 1000	Cc1nc2ccc(Cc3cc(C(=O)NCc4ccc(N)nc4C)ccn3)cc2cc1Cl [Example 239, N-((6-amino-2-methylpyridin-3-yl)methyl)-2-((3-chloro-2-methylquinolin-6-yl)methyl)isonicotinamide]
100 to 1000	Nc1nccc2cc(CNC(=O)c3ccnc(Cc4ccc5ncc(Cl)cc5c4)c3)c(F)cc12 [Example 180, N-((1-amino-7-fluoroisoquinolin-6-yl)methyl)-2-((3-chloroquinolin-6-yl)methyl)isonicotinamide]
100 to 1000	Cc1cc(N)nc(C)c1CNC(=O)c1ccnc(Cc2ccc3ncc(Cl)cc3c2F)c1 [Example 102, N-((6-amino-2,4-dimethylpyridin-3-yl)methyl)-2-((3-chloro-5-fluoroquinolin-6-yl)methyl)isonicotinamide]
≤ 100	Cc1cc(CN)nc(C)c1CNC(=O)c1ccnc(Cc2ccc3ncc(C(F)(F)F)cc3c2)c1 [Example 172, N-((6-(aminomethyl)-2,4-dimethylpyridin-3-yl)methyl)-2-((3-(trifluoromethyl)quinolin-6-yl)methyl)isonicotinamide]
≤ 100	Cc1cc2c(N)nccc2cc1CNC(=O)c1ccnc(Cc2ccc3ncc(Cl)cc3c2)c1 [Example 181, N-((1-amino-7-methylisoquinolin-6-yl)methyl)-2-((3-chloroquinolin-6-yl)methyl)isonicotinamide]
≤ 100	Nc1nccc2cc(CNC(=O)c3ccnc(Cc4cnc5ccc(F)cc5c4)c3)ccc12 [Example 118, N-((1-aminoisoquinolin-6-yl)methyl)-2-((6-fluoroquinolin-3-yl)methyl)isonicotinamide]
100 to 1000	Cc1cc(N)nc(C)c1CNC(=O)c1ccnc(Cc2cc3cc(C(F)(F)F)cnc3[nH]2)c1 [Example 215, N-((6-amino-2,4-dimethylpyridin-3-yl)methyl)-2-((5-(trifluoromethyl)-1H-pyrrolo[2,3-b]pyridin-2-yl)methyl)isonicotinamide]
100 to 1000	O=C(NCc1cnc2[nH]cc(Cl)c2c1)c1ccnc(Cc2ccc3ncc(Cl)cc3c2)c1 [Example 38, N-(3-Chloro-1H-pyrrolo[2,3-b]pyridin-5-ylmethyl)-2-(3-chloro-quinolin-6-ylmethyl)-isonicotinamide]
≤ 100	Nc1nccc2cc(CNC(=O)c3ccnc(Cc4ccc5ncc(C6CC6)cc5c4)c3)ccc12 [Example 247, N-((1-aminoisoquinolin-6-yl)methyl)-2-((3-cyclopropylquinolin-6-yl)methyl)isonicotinamide]
≤ 100	Cc1ccc2ncc(Cc3cc(C(=O)NCc4c(C)cc(N)nc4C)ccn3)cc2c1 [Example 114, N-((6-amino-2,4-dimethylpyridin-3-yl)methyl)-2-((6-methylquinolin-3-yl)methyl)isonicotinamide]
≤ 100	Cc1cnc2c(S(C)(=O)=O)cc(Cc3cc(C(=O)NCc4ccc5c(N)nccc5c4)ccn3)cc2c1 [Example 16, N-((1-aminoisoquinolin-6-yl)methyl)-2-((3-methyl-8-(methylsulfonyl)quinolin-6-yl)methyl)isonicotinamide]
